# Key:
# [1] = tested on: db/db mice; assay: Glucose lowering experiment, random blood glucose of db/db mice after single subcutaneous injection; format: in vivo
# Protocol: (§1) After DB/DB mice with high blood glucose were acclimated for 5-7 days, a non-fasting random blood glucose level was determined; after fasting for 12 h, a fasting blood glucose level was determined by a rapid blood glucose meter. […] Mice in each test drug group and each control group received single subcutaneous injection of each test drug or a control solution respectively, and the mice in the model control group received single subcutaneous injection of PBS buffer solution; and the experiment grouping and dosage setting conditions were shown in Table 1:
# Blood glucose level: the blood was taken from the tail tip of the mice to measure the blood glucose level with a fast blood glucose meter and blood glucose test strips. […]
# The glucose lowering effect of the test article was evaluated by BG (mmol/L) or AUC (mmol/L·min).
# (§2) T test was used for comparison between two groups. One-way ANOVA was used for comparison among three or more groups. If there was a significant difference in F value, multiple comparisons should be performed after ANOVA analysis. All data analyses were performed with SPSS 17.0. If p<0.05, it was considered a significant difference.
# [2] = Effect on random body weight of db/db mice after single subcutaneous injection; format: in vivo; set-up: unit not given here
# Protocol: as §1
# Body weight: after grouping the animals, the body weight was measured once a day at a fixed time period
# as §2
substance,measurement,setting,value
Semaglutide,Random blood glucose,"[1]; 30 nmol/kg SC group, baseline at grouping before administration, X ± s, n = 8",25.8 ± 3.9 mmol/L
same,"Blood glucose at different time after administration, 0 h","[1]; 30 nmol/kg SC single dose, 0 h",26.8 ± 3.2 mmol/L
same,"Blood glucose at different time after administration, 2 h","[1]; 30 nmol/kg SC single dose, 2 h",14.9 ± 4.1 mmol/L
same,"Blood glucose at different time after administration, 4 h","[1]; 30 nmol/kg SC single dose, 4 h",13.2 ± 3.2 mmol/L
same,"Blood glucose at different time after administration, 6 h","[1]; 30 nmol/kg SC single dose, 6 h",13.3 ± 3.7 mmol/L
same,"Blood glucose at different time after administration, 10 h","[1]; 30 nmol/kg SC single dose, 10 h",11.5 ± 3.7 mmol/L
same,"Blood glucose at different time after administration, 24 h","[1]; 30 nmol/kg SC single dose, 24 h",12.6 ± 5.6 mmol/L
same,"Blood glucose at different time after administration, 36 h","[1]; 30 nmol/kg SC single dose, 36 h",21.1 ± 4.1 mmol/L
same,"Blood glucose at different time after administration, 48 h","[1]; 30 nmol/kg SC single dose, 48 h",21.3 ± 5.6 mmol/L
same,"Blood glucose at different time after administration, 56 h","[1]; 30 nmol/kg SC single dose, 56 h",28.3 ± 4.8 mmol/L
same,"Blood glucose at different time after administration, 72 h","[1]; 30 nmol/kg SC single dose, 72 h",32.3 ± 1.9 mmol/L
same,"Random body weight at different time after administration, Day 0","[2]; 30 nmol/kg SC single dose, Day 0",41.62 ± 1.56
same,"Random body weight at different time after administration, Day 1","[2]; 30 nmol/kg SC single dose, Day 1",38.86 ± 1.37
same,"Random body weight at different time after administration, Day 2","[2]; 30 nmol/kg SC single dose, Day 2",40.56 ± 1.51
same,"Random body weight at different time after administration, Day 3","[2]; 30 nmol/kg SC single dose, Day 3",41.03 ± 1.72
same,"Random body weight at different time after administration, Day −1","[2]; 30 nmol/kg group, Day −1 (before administration)",40.24 ± 1.44
same,"Random body weight at different time after administration, Day −2","[2]; 30 nmol/kg group, Day −2 (before administration), X ± s, n = 8",41.37 ± 1.64

# From patent publication US12590134B2, “GLP-1 agonist polypeptide compound and salt thereof, synthesis method therefor and use thereof” (Sinopep-Allsino Biopharmaceutical Co., Ltd., priority 2020, dated 2026)
